# Assay results as given in article PMC10080691, “Enzyme-Responsive Double-Locked Photodynamic Molecular Beacon for Targeted Photodynamic Anticancer Therapy” (Journal of the American Chemical Society, 2023).
# Key:
# [1] = system: A549 cells; assay: Intracellular ROS generation (H2DCFDA); assay type: cell-based, human; conditions: 2 μM 1 h + 6 h, light λ > 610 nm, 23 mW cm-2, 14 J cm-2
# Experimental: The enzyme-responsive intracellular ROS generation of 1 was then examined in A549 and HeLa cells using 2′,7′-dichlorodihydrofluorescein diacetate (H2DCFDA) as the ROS fluorescent probe. Once H2DCFDA is internalized, it will be deacetylated by the intracellular esterase, followed by oxidation by the intracellular ROS, leading to the formation of the highly fluorescent 2′,7′-dichlorofluorescein (DCF).[79] The cells were first pretreated with SB-3CT (10 μM) and/or CA-074 Me (25 μM) or simply the neat medium for 2 h, followed by incubation with 1 (2 μM) for a further 1 h. As a negative control, the cells were simply incubated with 14 (2 μM) for 1 h. After being rinsed with PBS, the cells were incubated in the medium for a further 6 h. Finally, the cells were incubated with H2DCFDA (10 μM) for 30 min, followed by dark or light (λ > 610 nm, 23 mW cm^–2, 14 J cm^–2) treatment. […] It can be seen that for the MMP-2-positive A549 cells, the fluorescence due to DCF was in the following order: 1 without pretreatment of the cells with the two inhibitors > 1 with pretreatment of the cells with either one of the two inhibitors > 1 with pretreatment of the cells with both inhibitors ≈ 14. […] This trend, which reflects the extent of recovery of ROS generation, was in accord with that of the fluorescence recovery inside the cells (Figure 5c,d). For the MMP-2-negative HeLa cells, the intracellular fluorescence remained very weak even for 1 without pretreatment of the cells with the two inhibitors because of the intrinsically low MMP levels in the cells. […]
# or ER-Tracker Green (Thermo Fisher Scientific Inc., E34251) (1 μM for 15 min) in a serum-free medium at 37 °C. […] All the trackers were excited at 488 nm and their fluorescence was monitored at 500−570 nm, while the DSBDP moiety was excited at 638 nm and its fluorescence was monitored at 650−750nm. The images were digitized and analyzed using a Leica Application Suite X software. […]
# at 500−550 nm. The images were digitized and analyzed using a Leica Application Suite X […]
# [2] = system: A549 tumor-bearing nude mice; assay: In vivo PDT; design: species or system Balb/c nude mice; conditions: for H&E staining of major organs, Day 14 / H&E staining of tumor, Day 14 / change in body weight over 14 days: intratumoral 20 nmol + laser 680 nm, 180 J cm-2; for change in body weight over 14 days / tumor size over 14 days: n = 4; for tumor size over 14 days: intratumoral 20 nmol, laser 680 nm, 0.3 W cm-2, 10 min (180 J cm-2) at 6 h post-injection
# Experimental: To further examine the in vivo PDT efficacy of 1, A549 tumor-bearing nude mice were first intratumorally injected with 1 or the non-cleavable control 14 (20 nmol) in 20 μL of distilled water containing 7.5% dimethyl sulfoxide (DMSO) and 0.5% Tween 80 (v/v). After 6 h, when the difference in tumoral fluorescence intensity was the largest between the two conjugates (Figure 7b), the tumor was irradiated with a diode laser at 680 nm (0.3 W cm^–2) for 10 min. As another negative control, another group of mice were injected with PBS only without the laser treatment. The tumor size of all mice was monitored continuously for 14 days after the different treatments.
# The body weight of the mice was also monitored during the course of these treatments (Figure 7e). […] In addition, the PDT effect on the tumor and major organs was further investigated by hematoxylin and eosin (H&E) staining.
# A549 tumor-bearing nude mice were prepared as described above. The length and width of the tumor were measured using a micrometer digital caliper (SCITOP Systems). The tumor volume (mm3) was calculated using the formula: tumor volume = (length × width2)/2. Once the tumors had grown to a size of 80 –100 mm3, 1 or 14 (20 nmol) dissolved in 20 μL of distilled water containing 7.5% DMSO and 0.5% Tween 80 (v/v) was injected to the tumor -bearing mice through intratu moral injection. At 6 h post-injection, the tumor was illuminated with a diode […]
# The tumor size o f the nude mice was monitored periodically for the next 14 days. The tumor volumes were also compared with a PBS control group of mice without the light treatment.
# Four mice were used for each group. On Day 14 after the PDT treatment, the mice were sacrificed, and the tumor and major organs were harvested. The tissues were fixed with 4% […]
# and embedded in paraffin. […]
Compound,intracellular ROS generation (DCF fluorescence) ([1]; pretreatment with both SB-3CT (10 μM) and CA-074 Me (25 μM) 2 h),"H&E staining of major organs, Day 14 [2]","H&E staining of tumor, Day 14 [2]",change in body weight over 14 days [2],tumor size over 14 days [2],intracellular ROS generation (DCF fluorescence) ([1]; no inhibitor pretreatment)
CCN(CC)c1ccc2nc3ccc(/N=N/c4ccc(N(C)CCCNC(=O)OC[C@@H]5[C@@H]6CCc7nnn(CC(=O)NCCCC[C@@H]8NC(=O)CNC(=O)[C@H](CCCCN)NC(=O)[C@H](CCCNC(=N)N)NC(=O)[C@H](C(C)C)NC(=O)CNC(=O)[C@H](CC(C)C)NC(=O)[C@@H]9CCCN9C(=O)[C@H](CCCCN)NC(=O)[C@@H](N)CSCc9cc(COc%10ccc(C%11=C%12C(C)=C(I)C(/C=C/c%13ccc(OCCOCCOCCOC)cc%13)=[N+]%12[B-](F)(F)n%12c(/C=C/c%13ccc(OCCOCCOCCOC)cc%13)c(I)c(C)c%12%11)cc%10)cc(c9)CSC[C@@H](C(N)=O)NC(=O)[C@H](CCCCN)NC(=O)[C@H](CCCCN)NC(=O)CNC(=O)[C@H](CC(C)C)NC(=O)[C@H](Cc9ccccc9)NC(=O)CNC(=O)[C@H](CCCCN)NC(=O)CNC8=O)c7CC[C@@H]65)cc4)cc3[n+](-c3ccccc3)c2c1 [compound 1],could hardly be observed,no apparent damage,significant cellular damage and necrosis,negligible change,greatly reduced,
CCN(CC)c1ccc2nc3ccc(/N=N/c4ccc(N(C)CCCNC(=O)OC[C@@H]5[C@@H]6CCc7nnn(CC(=O)NCCCC[C@@H]8NC(=O)CNC(=O)[C@H](CCCCN)NC(=O)CNC(=O)CNC(=O)CNC(=O)CNC(=O)CNC(=O)[C@H](CCCCN)NC(=O)[C@@H](N)CSCc9cc(COc%10ccc(C%11=C%12C(C)=C(I)C(/C=C/c%13ccc(OCCOCCOCCOC)cc%13)=[N+]%12[B-](F)(F)n%12c(/C=C/c%13ccc(OCCOCCOCCOC)cc%13)c(I)c(C)c%12%11)cc%10)cc(c9)CSC[C@@H](C(N)=O)NC(=O)[C@H](CCCCN)NC(=O)[C@H](CCCCN)NC(=O)CNC(=O)CNC(=O)CNC(=O)CNC(=O)[C@H](CCCCN)NC(=O)CNC8=O)c7CC[C@@H]65)cc4)cc3[n+](-c3ccccc3)c2c1 [compound 14],,no apparent damage,no apparent damage,negligible change,grew continuously,could hardly be observed
